The values that follow come from patent US7960377B2 (priority 2008, dated 2011).

The structures appear in SMILES notation.

human CB1 receptor, sequence (P21554 whole entry): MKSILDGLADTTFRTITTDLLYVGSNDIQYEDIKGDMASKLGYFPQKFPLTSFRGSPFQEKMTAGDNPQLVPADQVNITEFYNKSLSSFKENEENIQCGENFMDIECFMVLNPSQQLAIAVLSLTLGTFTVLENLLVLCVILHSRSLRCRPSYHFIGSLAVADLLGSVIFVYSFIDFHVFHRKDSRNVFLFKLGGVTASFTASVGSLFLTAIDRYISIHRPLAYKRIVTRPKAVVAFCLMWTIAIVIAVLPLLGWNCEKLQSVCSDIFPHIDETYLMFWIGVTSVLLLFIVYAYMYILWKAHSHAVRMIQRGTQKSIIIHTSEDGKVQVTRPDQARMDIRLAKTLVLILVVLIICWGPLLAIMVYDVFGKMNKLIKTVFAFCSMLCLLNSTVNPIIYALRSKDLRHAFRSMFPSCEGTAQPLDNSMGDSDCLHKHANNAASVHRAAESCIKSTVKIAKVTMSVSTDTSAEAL

One test addresses human CB1 receptor (Homo sapiens, UniProt P21554). Put plainly: cell-based.
Settings: not given
Take `O=C(c1cnc2c(c1)N(S(=O)(=O)c1ccc(Cl)c(Cl)c1)CCO2)N1CCC(F)(F)C1` [Example 126, (1-(3,4-dichlorophenyl-sulfonyl)-2,3-dihydro-1H-pyrido[2,3-b][1,4]oxazin-7-yl)(3,3-difluoro-pyrrolidin-1-yl)methanone]: the EC50 was above 30 µM.
With `CC(C)(N)CNC(=O)c1cnc2c(c1)N(S(=O)(=O)c1ccc(C(F)(F)F)cc1)CCO2` [Example 47, N-(2-amino-2-methylpropyl)-1-(4-(trifluoromethyl)phenylsulf-onyl)-2,3-dihydro-1H-pyrido[2,3-b][1,4]oxazine-7-carboxamide], the EC50 is above 30 µM.
`CCN(CC)C(=O)c1cnc2c(c1)N(S(=O)(=O)c1ccc(F)cc1)CCO2` [Example 13, N,N-diethyl-1-(4-fluorophenylsulfonyl)2,3-dihydro-1H-pyrido[2,3-b][1,4]oxazine-7-carboxamide] yielded an EC50 above 30 µM.
On the same count and under the same terms, with `CCC(C)(C)NC(=O)c1cnc2c(c1)N(S(=O)(=O)N(C)C)CCO2` [Example 143, 1-(N,N-dimethyl-sulfamoyl)-N-tert-pentyl-2,3-dihydro-1H-pyrido[2,3-b][1,4]oxazine-7-carboxamide] the figure was above 30 µM; with `COc1ccc(S(=O)(=O)N2CCOc3ncc(C(=O)NC(C)(C)CO)cc32)cc1Cl` [Example 100, 1-(3-chloro-4-methoxyphenylsulfonyl)-N-(1-hydroxy-2-methylpropan-2-yl)-2,3-dihydro-1H-pyrido[2,3-b][1,4]oxazine-7-carboxamide], above 30 µM; with `O=C(c1cnc2c(c1)N(S(=O)(=O)c1ccc(C(F)(F)F)cc1)CCO2)N1CCCCC1CO` (racemic) [Example 72, +/− (2-(hydroxymethyl)piperidin-1-yl)(1-(4-(trifluoro-methyl)phenylsulfonyl)-2,3-dihydro-1H-pyrido [2,3-b][1,4]oxazin-7-yl) methanone], above 30 µM.
For `CC(C)(C)N(CCO)C(=O)c1cnc2c(c1)N(S(=O)(=O)c1ccc(C(F)(F)F)cc1)CCO2` [Example 44, N-tert-butyl-N-(2-hydroxyethyl)-1-(4-(trifluoromethyl)phenylsulf-onyl)-2,3-dihydro-1H-pyrido[2,3-b][1,4]oxazine-7-carboxamide], the EC50 is above 30 µM.
The same measure, in the same setting: next, `CC(C)(C)NC(=O)c1cnc2c(c1)N(S(=O)(=O)c1ccc(Cl)cc1Cl)CCO2` [Example 54, N-tert-butyl-1-(2,4-dichlorophenylsulfonyl)-2,3-dihydro-1H-pyrido[2,3-b][1,4]oxazine-7-carboxamide]: above 30 µM; `O=C(NCC1CCOCC1)c1cnc2c(c1)N(S(=O)(=O)c1ccc(F)cc1)CCO2` [Example 9, 1-(4-fluorophenyl-sulfonyl)-N-((tetrahydro-2H-pyran-4-yl)methyl)-2,3-dihydro-1H-pyrido[2,3-b][1,4]oxazine-7-carboxamide]: above 30 µM.
Still for that read-out and setting: next, `COC1CN(C(=O)c2cnc3c(c2)N(S(=O)(=O)c2ccc(Cl)c(Cl)c2)CCO3)C1` [Example 129, (1-(3,4-dichlorophenyl-sulfonyl)-2,3-dihydro-1H-pyrido[2,3-b][1,4]oxazin-7-yl)(3-methoxyazetidin-1-yl)methanone]: above 30 µM.
As for `CNCCOC(=O)c1cnc2c(c1)N(S(=O)(=O)c1ccc(Cl)c(Cl)c1)CCO2` [Example 203, 2-(methylamino)ethyl 1-(3,4-dichlorophenylsulfonyl)-2,3-dihydro-1H-pyrido[2,3-b][1,4]oxazine-7-carboxylate], the EC50 is above 30 µM.
In turn, `CC(C)(C)NC(=O)c1cnc2c(c1)N(S(=O)(=O)c1cccc(OC(F)(F)F)c1)CCO2` [Example 85, N-tert-butyl-1-(3-(trifluoromethoxy)phenyl-sulfonyl)-2,3-dihydro-1H-pyrido[2,3-b][1,4]oxazine-7-carboxamide] returned an EC50 above 30 µM.
`Cc1cccc(S(=O)(=O)N2CCOc3ncc(C(=O)NC(C)(C)C)cc32)c1` [Example 86, N-tert-butyl-1-(m-tolylsulfonyl)-2,3-dihydro-1H-pyrido[2,3-b][1,4]oxazine-7-carboxamide] displayed an EC50 above 30 µM.
`O=C(NC1CCCC1)c1cnc2c(c1)N(S(=O)(=O)c1cccnc1)CCO2` [Example 17, N-cyclopentyl-1-(pyridin-3-ylsulfonyl)-2,3-dihydro-1H-pyrido[2,3-b][1,4]oxazine-7-carboxamide] returned a half-maximal effective concentration (EC50) above 30 µM.
Still for that read-out and setting: with `O=C(c1cnc2c(c1)N(S(=O)(=O)c1ccccc1)CCO2)N1CCCCC1` [Example 1, (1-(phenylsulfonyl)-2,3-dihydro-1H-pyrido[2,3-b][1,4]oxazin-7-yl)(piperidin-1-yl)methanone] the figure was above 30 µM.
Regarding `CN(Cc1ccccc1)C(=O)c1cnc2c(c1)N(S(=O)(=O)c1ccc(C(F)(F)F)cc1)CCO2` [Example 36, N-benzyl-N-methyl-1-(4-(trifluoromethyl)phenylsulf-onyl)-2,3-dihydro-1H-pyrido[2,3-b][1,4]oxazine-7-carboxamide], the EC50 was above 30 µM.
The compound `O=C(NCC1CCCO1)c1cnc2c(c1)N(S(=O)(=O)c1ccc(F)cc1)CCO2` (stereo not drawn) [Example 14, 1-(4-fluorophenyl-sulfonyl)-N-((tetra-hydrofuran-2-yl)methyl)-2,3-dihydro-1H-pyrido [2,3-b][1,4]oxazine-7-carboxamide] registered an EC50 above 30 µM.
Compound `CC(C)(C)NC(=O)c1cnc2c(c1)N(S(=O)(=O)c1ccc(F)cc1Cl)CCO2` [Example 57, N-tert-butyl-1-(2-chloro-4-fluorophenylsulfonyl)-2,3-dihydro-1H-pyrido[2,3-b][1,4]oxazine-7-carboxamide] displayed an EC50 above 30 µM.
Same read-out and setting: next, `CN(C)S(=O)(=O)N1CCOc2ncc(C(=O)NC(C)(C)C)cc21` [Example 145, N-tert-butyl-1-(N,N-dimethylsulfamoyl)-2,3-dihydro-1H-pyrido[2,3-b][1,4]oxazine-7-carboxamide]: above 30 µM.
Still for that read-out and setting: next, `CN(Cc1ccccc1)C(=O)c1cnc2c(c1)N(S(=O)(=O)c1ccc(F)cc1)CCO2` [Example 32, N-benzyl-1-(4-fluorophenylsulfonyl)-N-methyl-2,3-dihydro-1H-pyrido[2,3-b][1,4]oxazine-7-carboxamide]: above 30 µM; `CC(C)CS(=O)(=O)N1CCOc2ncc(C(=O)NC3CCCC3)cc21` [Example 29, N-cyclopentyl-1-(isobutylsulfonyl)-2,3-dihydro-1H-pyrido[2,3-b][1,4]oxazine-7-carboxamide]: above 30 µM.
Still for that read-out and setting: next, `CC(C)(CN1CCCCC1)NC(=O)c1cnc2c(c1)N(S(=O)(=O)c1ccc(C(F)(F)F)cc1)CCO2` [Example 77, N-(2-methyl-1-(piperidin-1-yl)propan-2-yl)-1-(4-(trifluoromethyl)phenylsulf-onyl)-2,3-dihydro-1H-pyrido[2,3-b][1,4]oxazine-7-carboxamide]: above 30 µM; `O=C(NC1CCCC1)c1cnc2c(c1)N(Cc1ccc(F)cc1)C(=O)CO2` [Example 221, N-cyclopentyl-1-(4-fluorobenzyl)-2-oxo-2,3-dihydro-1H-pyrido[2,3-b] [1,4]oxazine-7-carboxamide]: above 30 µM; `CC(C)(C)NC(=O)c1cnc2c(c1)N(S(=O)(=O)c1ccc(C(C)(C)C)cc1)CCO2` [Example 82, N-tert-butyl-1-(4-tert-butylphenylsulfonyl)-2,3-dihydro-1H-pyrido[2,3-b][1,4]oxazine-7-carboxamide]: above 30 µM.
Regarding `CC1CN(C(=O)c2cnc3c(c2)N(S(=O)(=O)c2ccc(C(F)(F)F)cc2)CCO3)CC(C)O1` (stereo not drawn) [Example 198, (2,6-dimethylmorpholino)(1-(4-(trifluoromethyl)phenylsulf-onyl)-2,3-dihydro-1H-pyrido[2,3-b][1,4]oxazin-7-yl)methanone], the EC50 is above 30 µM.
As for `O=C(c1cnc2c(c1)N(S(=O)(=O)c1ccc(C(F)(F)F)cc1)CCO2)N1CCOCC1` [Example 50, morpholino(1-(4-(trifluoromethyl)phenylsulf-onyl)-2,3-dihydro-1H-pyrido[2,3-b][1,4]oxazin-7-yl)methanone], the concentration giving a half-maximal response (EC50) was above 30 µM.
Compound `CC(C)(C)NC(=O)c1cnc2c(c1)N(S(=O)(=O)N1CCC(N3CCCC3)CC1)CCO2` [Example 176, N-tert-butyl-1-(4-(pyrrolidin-1-yl)piperidin-1-ylsulfonyl)-2,3-dihydro-1H-pyrido[2,3-b][1,4]oxazine-7-carboxamide] had an EC50 above 30 µM.
`CNCC(C)(C)COC(=O)c1cnc2c(c1)N(S(=O)(=O)c1ccc(Cl)c(Cl)c1)CCO2` [Example 204, 2,2-dimethyl-3-(methylamino)propyl 1-(3,4-dichlorophenylsulfonyl)-2,3-dihydro-1H-pyrido[2,3-b][1,4]oxazine-7-carboxylate] yielded an EC50 above 30 µM.
For `CCCS(=O)(=O)N1CCOc2ncc(C(=O)NC(C)(C)C)cc21` [Example 79, N-tert-butyl-1-(propylsulfonyl)-2,3-dihydro-1H-pyrido[2,3-b][1,4]oxazine-7-carboxamide], the EC50 is above 30 µM.
As to `O=C(c1cnc2c(c1)N(S(=O)(=O)c1ccc(Cl)c(Cl)c1)CCO2)N1CC(F)(F)C1` [Example 128, (1-(3,4-dichlorophenyl-sulfonyl)-2,3-dihydro-1H-pyrido[2,3-b][1,4]oxazin-7-yl)(3,3-difluoroazetidin-1-yl)methanone], the EC50 is above 30 µM.
Turning to `COCCNC(=O)c1cnc2c(c1)N(S(=O)(=O)c1ccc(C(F)(F)F)cc1)CCO2` [Example 51, N-(2-methoxyethyl)-1-(4-(trifluoromethyl)phenysulf-onyl)-2,3-dihydro-1H-pyrido[2,3-b][1,4]oxazine-7-carboxamide], the EC50 was above 30 µM.
On the same count and under the same terms, with `CN(CCO)C(=O)c1cnc2c(c1)N(S(=O)(=O)c1ccc(Cl)c(Cl)c1)CCO2` [Example 120, 1-(3,4-dichlorophenyl-sulfonyl)-N-(2-hydroxy-ethyl)-N-methyl-2,3-dihydro-1H-pyrido[2,3-b][1,4]oxazine-7-carboxamide] the figure was above 30 µM.

Staying with this test, now noted: asterisk at the compound number.
Regarding `CC(C)(C)NC(=O)c1cnc2c(c1)N(S(=O)(=O)Cc1ccc(Cl)cc1)CCO2` [Example 61, N-tert-butyl-1-(4-chlorobenzylsulfonyl)-2,3-dihydro-1H-pyrido[2,3-b][1,4]oxazine-7-carboxamide], the “inverse agonist mark, human CB1 receptor” value is reported as 2, 3, 5, 7, 8, 10, 39, 58, 61*, 69, 93*, 101, 102, 109, 110, 111, 112,.

By EC50 is commonly meant the concentration giving half of the maximal effect. A low value points to a more potent agent.
